The source of these data is ChEMBL document CHEMBL6134867, “Design and Synthesis of FR-β Targeting Chimeric Molecules for Reprogramming Tumor-Associated Macrophages Using 6-Substituted Pyrrolo[2,3-d]pyrimidines as Targeting Ligands” (J Med Chem, 2025).

In series [1] the test system is 4T1. In words: Cytotoxicity against mouse 4T1 cells assessed as reduction in cell viability incubated for 24 hrs by CCK-8 assay. Particulars: 4t1, 24 h. Type of series: toxicity, cell-based. (Formazan colour is commonly taken as a measure of viable cells.)
The test system of series [2] is BMDM. In words: Induction of macrophage repolarization in FR-beta expressing IL-4 differentiated M2 phenotype mouse BMDM cells assessed as reprogramming to M1 phenotype by measuring upregulation of TLR7 expression at 10 nM incubated for 24 hrs by western blot analysis. The class given is functional, cell-based.
In series [3] the test system is BMDM. The series can be described thus: Induction of macrophage repolarization in FR-beta expressing IL-4 differentiated M2 phenotype mouse BMDM cells assessed as reprogramming to M1 phenotype by measuring downregulation of CD206 expression at 10 nM incubated for 24 hrs by western blot analysis. The class given is functional, cell-based. Background: In western blotting, separated proteins are transferred to a membrane and probed.

The test system of series [4] is BMDM. The series can be described thus: Induction of macrophage repolarization in FR-beta expressing IL-4 differentiated M2 phenotype mouse BMDM cells assessed as reprogramming to M1 phenotype by measuring upregulation of iNOS expression at 10 nM incubated for 24 hrs by western blot analysis. Type of series: functional, cell-based.
Series [5] in a line: Toxicity against BALB/c mouse xenografted with mouse 4T1 cells assessed as pathological changes in liver at 1 mg/kg, iv qd for 14 days by Hematoxylin-Eosin staining based analysis. The class given is organism-based. The conditions noted are these: in vivo, 336 h, time 14 day.
The subject of series [6] is BMDM. The series can be described thus: Induction of macrophage repolarization in FR-beta expressing IL-4 differentiated M2 phenotype mouse BMDM cells assessed as reprogramming to M1 phenotype by measuring downregulation of Arg1 mRNA expression at 10 nM incubated for 24 hrs by RT-qPCR analysis. The class given is functional, cell-based.
Series [7] concerns BMDM. The series can be described thus: Induction of macrophage repolarization in FR-beta expressing IL-4 differentiated M2 phenotype mouse BMDM cells assessed as reprogramming to M1 phenotype by measuring TNF-alpha mRNA expression at 10 nM incubated for 24 hrs by RT-qPCR analysis. Type of series: functional, cell-based. Background: Quantitative PCR measures a nucleic acid by following its amplification.

Series [8] relates to BMDM. In words: Induction of macrophage repolarization in FR-beta expressing IL-4 differentiated M2 phenotype mouse BMDM cells assessed as reprogramming to M1 phenotype by measuring downregulation of IL-10 level at 10 nM incubated for 24 hrs by ELISA. Type of series: functional, cell-based.
A further series has as its system HUVEC. In words: Cytotoxicity against human HUVEC cells assessed as reduction in cell viability incubated for 24 hrs by CCK-8 assay. Type of series: toxicity, cell-based.
Series [9] concerns 4T1. The series can be described thus: Antitumor activity against mouse 4T1 cells xenografted in BALB/c mouse assessed as inhibition of tumor growth at 1 mg/kg, iv qd for 14 days and measured every day by digital caliper analysis. The class given is functional, organism-based. The conditions noted are these: time 14.0 day.
Series [10] deals with BMDM. The series can be described thus: Induction of macrophage repolarization in FR-beta expressing IL-4 differentiated M2 phenotype mouse BMDM cells assessed as reprogramming to M1 phenotype by measuring upregulation of MyD88 expression at 10 nM incubated for 24 hrs by western blot analysis. Type of series: functional, cell-based.
Series [11] relates to BMDM. In words: Induction of macrophage repolarization in FR-beta expressing IL-4 differentiated M2 phenotype mouse BMDM cells assessed as reprogramming to M1 phenotype by measuring downregulation of Arg1 expression at 10 nM incubated for 24 hrs by western blot analysis. Type of series: functional, cell-based.
Series [12] deals with BMDM. The series can be described thus: Induction of macrophage repolarization in FR-beta expressing IL-4 differentiated M2 phenotype mouse BMDM cells assessed as reprogramming to M1 phenotype by measuring upregulation of IL-6 mRNA expression at 10 nM incubated for 24 hrs by RT-qPCR analysis. Type of series: functional, cell-based.
For series [13], the system named is BMDM. In words: Induction of macrophage repolarization in FR-beta expressing IL-4 differentiated M2 phenotype mouse BMDM cells assessed as reprogramming to M1 phenotype by measuring upregulation of IL-6 level at 10 nM incubated for 24 hrs by ELISA. Type of series: functional, cell-based.
The nature of series [14]: Prodrug release assessed as IMDQ formation in presence of 10 mM GSH and measured after 1 to 8 hrs by HPLC analysis. Type of series: ADME. The conditions noted are these: time 1-8 hrs.
The nature of series [15]: Toxicity against BALB/c mouse xenografted with mouse 4T1 cells assessed as pathological changes in spleen at 1 mg/kg, iv qd for 14 days by Hematoxylin-Eosin staining based analysis. Type of series: organism-based. Particulars: in vivo, 336 h, time 14 day.
Series [16] in a line: Toxicity against BALB/c mouse xenografted with mouse 4T1 cells assessed as pathological changes in kidney at 1 mg/kg, iv qd for 14 days by Hematoxylin-Eosin staining based analysis. The class given is organism-based. The conditions noted are these: in vivo, 336 h, time 14 day.
Series [17] in a line: Toxicity against BALB/c mouse xenografted with mouse 4T1 cells assessed as effect on body weight at 1 mg/kg, iv qd for 14 days and measured every day. Type of series: organism-based. Particulars: in vivo, 336 h, time 14 day.
Series [18] relates to Mus musculus. The series can be described thus: In vivo transition from anti-inflammatory to pro-inflammatory phenotypes in BALB/c mouse xenografted with mouse 4T1 cells assessed as decrease in proportion of Ly6C+ and Ly6G+ cells within CD45+ population at 1 mg/kg, iv qd for 14 days by flow cytometry. The class given is functional, organism-based. The conditions noted are these: time 14.0 day.

In series [19] the test system is BMDM. The series can be described thus: Induction of macrophage repolarization in FR-beta expressing IL-4 differentiated M2 phenotype mouse BMDM cells assessed as reprogramming to M1 phenotype by measuring downregulation of IL-10 mRNA expression at 10 nM incubated for 24 hrs by RT-qPCR analysis. The class given is functional, cell-based.
Series [20] deals with BMDM. In words: Induction of macrophage repolarization in FR-beta expressing IL-4 differentiated M2 phenotype mouse BMDM cells assessed as reprogramming to M1 phenotype by measuring upregulation of iNOS mRNA expression at 10 nM incubated for 24 hrs by RT-qPCR analysis. Type of series: functional, cell-based.
Series [21] relates to Mus musculus. In words: In vivo transition from anti-inflammatory to pro-inflammatory phenotypes in BALB/c mouse xenografted with mouse 4T1 cells assessed as CD4+ cells population at 1 mg/kg, iv qd for 14 days by flow cytometry. Type of series: functional, organism-based. Particulars: time 14.0 day.
Series [22] in a line: Stability of the compound in mouse plasma at 5 uM and measured at 37 degC and for up to 12 hrs by HPLC analysis. Type of series: ADME, cell-free. Particulars: for remaining at 12 h, 5 µM: read-out: Stability.
Series [23] in a line: Toxicity against BALB/c mouse xenografted with mouse 4T1 cells assessed as pathological changes in heart at 1 mg/kg, iv qd for 14 days by Hematoxylin-Eosin staining based analysis. The class given is organism-based. Particulars: in vivo, 336 h, time 14 day.
A short description of series [24]: Toxicity against BALB/c mouse xenografted with mouse 4T1 cells assessed as heightened inflammatory response in lung at 1 mg/kg, iv qd for 14 days by Hematoxylin-Eosin staining based analysis. Type of series: organism-based. The conditions noted are these: in vivo, 336 h, time 14 day.
Series [25] is described as follows: Cytotoxicity against mouse BMDM cells assessed as reduction in cell viability incubated for 24 hrs by CCK-8 assay. The class given is toxicity, cell-based.
Series [26] deals with Mus musculus. The series can be described thus: In vivo transition from anti-inflammatory to pro-inflammatory phenotypes in BALB/c mouse xenografted with mouse 4T1 cells assessed as upregulation in proportion of CD8+ cells at 1 mg/kg, iv qd for 14 days by flow cytometry. Type of series: functional, organism-based. Particulars: time 14.0 day.
In series [27] the test system is BMDM. In words: Induction of macrophage repolarization in FR-beta expressing IL-4 differentiated M2 phenotype mouse BMDM cells assessed as reprogramming to M1 phenotype by measuring downregulation of CD206 mRNA expression at 10 nM incubated for 24 hrs by RT-qPCR analysis. The class given is functional, cell-based.
The subject of series [28] is BMDM. In words: Induction of macrophage repolarization in FR-beta expressing IL-4 differentiated M2 phenotype mouse BMDM cells assessed as reprogramming to M1 phenotype by measuring TNF-alpha level at 10 nM incubated for 24 hrs by ELISA. The class given is functional, cell-based.
The nature of series [29]: Stability of the compound in PBS measured at 4 degC and for 15 days. Type of series: physicochemical. The conditions noted are these: time 15 day, read-out: Stability.

Calls of active or inactive are those of the source. The rule behind the calls is not given here.

`Nc1nc2[nH]c(CCCCc3ccc(C(=O)N[C@@H](CCC(=O)N[C@@H](CS)C(=O)O)C(=O)O)cc3)cc2c(=O)[nH]1`: the Activity result in the series on 4T1 [1] is listed as “Non-toxic”. Further, the result in the series with BMDM [2], with BMDM [3] and in the series on BMDM [4] was inactive.
Regarding `CCCCc1nc2c(N)nc3ccccc3c2n1Cc1ccc(CNC(=O)OCCSSC[C@H](NC(=O)CC[C@H](NC(=O)CNC(=O)Cc2cc3c(=O)[nH]c(N)nc3[nH]2)C(=O)O)C(=O)O)cc1`, the Activity entry (in series [5]; in the series with HUVEC; in series [15]; in series [16]; in series [17]; in the series on 4T1 [1]) was “Non-toxic” throughout. Besides, the Activity entry in series [23], in [24] and in [25] was “Non-toxic” in each case. Besides, the result with BMDM [6], in the series on BMDM [8], with 4T1 [9], in the series on BMDM [10], in the series with BMDM [11] and in the series with BMDM [12] was Active. Also, the result with BMDM [13], in the series on Mus musculus [18], in the series on BMDM [19], with BMDM [20], in the series on Mus musculus [26] and in the series on BMDM [27] was Active. The result in the series on BMDM [3] and with BMDM [4] was Active. Moreover, the result in the series with BMDM [7], in the series with Mus musculus [21] and in the series with BMDM [28] was inactive. In series [14], the Drug metabolism entry is recorded as “metabolite_detected”. In addition, the remaining at 12 h, 5 µM in series [22] came to 95%. For the same compound, the remaining at 360 h in series [29] was more than 95%.
For `Nc1nc2[nH]c(CCCCc3ccc(C(=O)N[C@@H](CCC(=O)N[C@@H](CS)C(=O)O)C(=O)O)s3)cc2c(=O)[nH]1`, the Activity entry with 4T1 [1] was “Non-toxic”.
With `CCCCc1nc2c(N)nc3ccccc3c2n1Cc1ccc(CNC(=O)OCCSSC[C@H](NC(=O)CC[C@H](NC(=O)c2ccc(CCCCc3cc4c(=O)[nH]c(N)nc4[nH]3)s2)C(=O)O)C(=O)O)cc1`, the Activity result (in series [5]; in the series on HUVEC; in [15]; in series [16]; in series [17]; with 4T1 [1]) was “Non-toxic” throughout. For the same compound, the Activity entry in [23], in series [24] and in [25] was “Non-toxic” each time. Also, the outcome with 4T1 [9], in the series with Mus musculus [18] and with Mus musculus [26] was Active. Moreover, the Drug metabolism result in [14] is “metabolite_detected”. In addition, the result in the series with Mus musculus [21] was inactive. Moreover, the remaining at 12 h, 5 µM in series [22] amounted to 95%. Further, in series [29], the remaining at 360 h was more than 95%.
Consider `Nc1nc2[nH]c(CC(=O)NCC(=O)N[C@@H](CCC(=O)N[C@@H](CS)C(=O)O)C(=O)O)cc2c(=O)[nH]1`, for which the Activity entry in the series with 4T1 [1] was “Non-toxic”.
`CCCCc1nc2c(N)nc3ccccc3c2n1Cc1ccc(CNC(=O)OCCSSC[C@H](NC(=O)CC[C@H](NC(=O)c2ccc(NCc3cnc4nc(N)[nH]c(=O)c4n3)cc2)C(=O)O)C(=O)O)cc1`: the Activity entry is reported as “Non-toxic” in series [5]; “Active; Less Effective Than Fgt-2,4 Observed” in the series on BMDM [6]; “Non-toxic” with HUVEC; “Active; Less Effective Than Fgt-2,4 Observed” in the series on BMDM [11]; “Non-toxic” in series [15]; “Non-toxic” in series [16]. Also, the Activity result in series [17] was “Non-toxic”; with 4T1 [1], “Non-toxic”; in the series on BMDM [20] it was “Active; Less Effective Than Fgt-2,4 Observed”; in [23], “Non-toxic”; in [24] it was “Non-toxic”; in series [25], “Non-toxic”. Further, the Activity entry in the series with BMDM [27], with BMDM [3] and in the series with BMDM [4] was “Active; Less Effective Than Fgt-2,4 Observed” in each case. Moreover, the result in the series with 4T1 [9], in the series on Mus musculus [18] and with Mus musculus [26] was Active. In addition, the Drug metabolism entry in series [14] is “metabolite_detected”. For the same compound, in the series on Mus musculus [21], the outcome was inactive. Besides, the Stability result in series [22] (12 h, 5 µM) is given as “Unstable”. In series [29], the remaining at 360 h was less than 95%.
For `Nc1nc(O)c2nc(CNc3ccc(C(=O)N[C@@H](CCC(=O)N[C@@H](CS)C(=O)O)C(=O)O)cc3)cnc2n1`, in the series with 4T1 [1], the Activity entry is “Non-toxic”.
